This note sets out measurements from ChEMBL document CHEMBL5465560, “Selectivity Literature for EUbOPEN Chemogenomic Library” (2024).

Test [1] deals with T1, Mitogen-activated protein kinase kinase kinase 6 (Homo sapiens) (UniProt O95382).
T1 sequence (whole entry): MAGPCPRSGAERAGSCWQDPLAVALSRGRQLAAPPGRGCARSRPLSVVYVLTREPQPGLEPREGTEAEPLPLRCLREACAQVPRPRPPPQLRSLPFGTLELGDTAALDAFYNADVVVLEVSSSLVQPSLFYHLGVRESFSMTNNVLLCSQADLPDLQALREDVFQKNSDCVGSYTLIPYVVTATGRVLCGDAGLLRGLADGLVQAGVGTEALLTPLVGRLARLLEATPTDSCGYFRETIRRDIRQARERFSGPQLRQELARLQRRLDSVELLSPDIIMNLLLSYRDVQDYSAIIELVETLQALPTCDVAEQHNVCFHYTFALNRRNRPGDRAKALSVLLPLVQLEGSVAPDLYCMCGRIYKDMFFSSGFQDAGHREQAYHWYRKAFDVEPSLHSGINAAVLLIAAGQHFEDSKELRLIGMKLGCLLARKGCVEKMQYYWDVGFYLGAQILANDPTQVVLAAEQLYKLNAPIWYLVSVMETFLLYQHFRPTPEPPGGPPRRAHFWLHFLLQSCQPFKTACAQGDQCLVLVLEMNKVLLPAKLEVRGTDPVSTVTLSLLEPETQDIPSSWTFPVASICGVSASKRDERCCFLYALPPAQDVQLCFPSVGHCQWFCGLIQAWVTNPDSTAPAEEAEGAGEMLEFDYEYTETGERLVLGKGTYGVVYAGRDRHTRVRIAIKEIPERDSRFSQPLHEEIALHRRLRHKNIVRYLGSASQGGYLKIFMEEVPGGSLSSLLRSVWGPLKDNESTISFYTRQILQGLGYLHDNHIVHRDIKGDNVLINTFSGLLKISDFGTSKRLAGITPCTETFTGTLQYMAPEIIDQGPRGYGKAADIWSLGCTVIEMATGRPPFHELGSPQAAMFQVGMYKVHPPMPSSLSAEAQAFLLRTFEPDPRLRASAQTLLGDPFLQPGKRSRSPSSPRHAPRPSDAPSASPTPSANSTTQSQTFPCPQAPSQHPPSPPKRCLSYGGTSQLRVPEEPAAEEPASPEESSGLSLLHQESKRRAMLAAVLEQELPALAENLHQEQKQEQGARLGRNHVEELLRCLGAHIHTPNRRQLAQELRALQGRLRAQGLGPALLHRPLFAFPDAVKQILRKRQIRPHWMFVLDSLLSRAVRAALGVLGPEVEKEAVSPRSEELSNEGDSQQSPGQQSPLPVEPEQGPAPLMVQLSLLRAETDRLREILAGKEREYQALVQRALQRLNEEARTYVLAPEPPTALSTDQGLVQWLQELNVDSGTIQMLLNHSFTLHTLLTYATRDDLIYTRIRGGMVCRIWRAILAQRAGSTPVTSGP
In words: Selectivity interaction (KinomeScan (DiscoverX)) EUB0000655a MAP3K6. As to conditions: at 10 µM.

Test [2] concerns the target T2, Cyclin-dependent kinase 11A (Homo sapiens) (UniProt Q9UQ88).
T2 sequence (whole entry): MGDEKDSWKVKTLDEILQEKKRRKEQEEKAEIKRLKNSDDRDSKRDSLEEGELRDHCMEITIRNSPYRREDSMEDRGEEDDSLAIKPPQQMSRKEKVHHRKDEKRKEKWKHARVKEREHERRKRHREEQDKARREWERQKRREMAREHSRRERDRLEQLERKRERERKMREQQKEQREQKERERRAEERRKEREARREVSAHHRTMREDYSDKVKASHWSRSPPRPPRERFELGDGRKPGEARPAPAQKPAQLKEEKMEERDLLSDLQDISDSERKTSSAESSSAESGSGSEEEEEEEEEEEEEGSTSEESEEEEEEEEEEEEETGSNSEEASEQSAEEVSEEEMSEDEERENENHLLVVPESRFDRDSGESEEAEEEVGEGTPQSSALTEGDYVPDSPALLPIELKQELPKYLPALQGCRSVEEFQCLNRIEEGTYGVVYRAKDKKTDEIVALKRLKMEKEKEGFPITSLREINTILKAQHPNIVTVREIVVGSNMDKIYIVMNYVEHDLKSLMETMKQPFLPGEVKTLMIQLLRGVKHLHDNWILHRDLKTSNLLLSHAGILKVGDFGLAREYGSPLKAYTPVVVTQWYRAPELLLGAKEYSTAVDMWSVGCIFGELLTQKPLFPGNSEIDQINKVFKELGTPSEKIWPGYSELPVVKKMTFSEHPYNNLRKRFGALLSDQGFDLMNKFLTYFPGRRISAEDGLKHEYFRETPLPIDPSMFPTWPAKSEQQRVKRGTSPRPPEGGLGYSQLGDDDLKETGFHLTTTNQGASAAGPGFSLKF
In words: Selectivity interaction (LanthaScreen Eu Kinase Binding Assay) EUB0001632a CDK11A. To be noted: at 10 µM. A general note: In TR-FRET formats the signal depends on donor and acceptor labels being close together.

Test [3] addresses Protein kinase C theta type (Homo sapiens, UniProt Q04759). In words: Selectivity interaction (SelectScreen profiling (Invitrogen)) EUB0000607a PRKCQ. As to conditions: at 2 µM.
In test [4] the target is T3, Dual specificity mitogen-activated protein kinase kinase 4 (Homo sapiens) (UniProt P45985).
T3 sequence (whole entry): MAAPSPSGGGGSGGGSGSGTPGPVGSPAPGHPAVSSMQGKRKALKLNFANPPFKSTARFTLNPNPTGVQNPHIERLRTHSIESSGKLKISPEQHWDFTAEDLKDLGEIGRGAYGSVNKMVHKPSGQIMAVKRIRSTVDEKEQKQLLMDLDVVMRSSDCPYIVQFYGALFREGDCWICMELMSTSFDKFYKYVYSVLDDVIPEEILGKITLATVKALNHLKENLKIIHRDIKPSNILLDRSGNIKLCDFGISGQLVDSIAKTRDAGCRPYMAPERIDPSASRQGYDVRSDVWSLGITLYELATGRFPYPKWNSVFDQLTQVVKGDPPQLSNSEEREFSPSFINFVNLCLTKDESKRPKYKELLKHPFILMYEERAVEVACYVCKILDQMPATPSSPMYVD
In words: Selectivity interaction (ActivX KiNativ screen (kinase selectivity in THP-1 cell lysates)) EUB0000639a MAP2K4. To be noted: lysate, at 5 µM. It counts as subcellular.

For test [5], the target named is Bromodomain testis-specific protein (Homo sapiens) (UniProt Q58F21). In words: Selectivity interaction (Human bromodomain panel (DSF assay)) EUB0000233b BRDT.

Protein kinase C theta type, sequence (Q04759 whole entry, looked up): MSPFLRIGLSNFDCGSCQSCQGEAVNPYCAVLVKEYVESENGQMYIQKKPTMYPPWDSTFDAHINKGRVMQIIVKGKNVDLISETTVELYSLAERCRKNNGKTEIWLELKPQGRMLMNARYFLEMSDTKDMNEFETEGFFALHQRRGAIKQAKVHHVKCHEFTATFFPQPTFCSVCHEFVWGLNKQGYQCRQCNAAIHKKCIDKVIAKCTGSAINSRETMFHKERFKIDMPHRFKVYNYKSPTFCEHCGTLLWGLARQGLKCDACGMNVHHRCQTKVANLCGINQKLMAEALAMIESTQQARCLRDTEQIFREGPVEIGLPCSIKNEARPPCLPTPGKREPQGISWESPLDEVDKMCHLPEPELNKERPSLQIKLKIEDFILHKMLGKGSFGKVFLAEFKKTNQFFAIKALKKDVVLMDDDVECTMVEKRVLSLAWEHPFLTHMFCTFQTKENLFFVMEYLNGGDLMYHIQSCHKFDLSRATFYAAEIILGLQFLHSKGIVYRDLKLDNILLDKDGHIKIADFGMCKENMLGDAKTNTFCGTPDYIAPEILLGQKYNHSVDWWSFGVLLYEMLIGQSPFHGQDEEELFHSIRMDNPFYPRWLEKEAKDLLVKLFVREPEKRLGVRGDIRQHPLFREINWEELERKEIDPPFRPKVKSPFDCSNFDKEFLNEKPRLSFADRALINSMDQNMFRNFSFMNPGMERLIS

In turn, `CN(C)CCOc1ccc(-c2nc(-c3ccncc3)c(-c3ccc4c(c3)CC/C4=N\O)[nH]2)cc1` displayed a % of control in test [1] of 100%. Take `Cn1cc(-n2cnc3c(NCc4nc5cc(Cl)c(Cl)cc5[nH]4)nc(N4CCOCC4)nc32)cn1`: the % of inhibition in test [2] is -1.94%. As to `CNC(=O)Nc1ccc(-c2nc(N3CC4CCC(C3)O4)c3cnn(C4CCC5(CC4)OCCO5)c3n2)cc1`, the % of inhibition in test [3] is 5%. Regarding `CC[C@@H]1[C@H](F)C(=O)N[C@@H]1COc1nccc2cc(C(N)=O)c(OC)cc12` [ZIMLOVISERTIB], the % of inhibition in test [4] is 29.6%. The compound `CN(C)CCCOc1ccc(-c2cc(NCCCn3cccn3)nc(S(C)(=O)=O)n2)cc1` showed a dTM in test [5] below 2 K.
